This is an account of results in EP4603105A1, “PHARMACEUTICAL COMPOSITION CONTAINING CYCLIC COMPOUND HAVING SELECTIVE KRAS INHIBITORY EFFECT AGAINST HRAS AND NRAS” (CHUGAI SEIYAKU KABUSHIKI KAISHA, priority 2022, dated 2024).

SMILES strings stand for the structures. pIC50, pKd: −log10 of the molar value. Where a SMILES comes first, the peptide text is derived from it. Bridges are numbered along the chain shown (N, C = ends). [ ]: non-standard residue; d: D form. The star is where a group is joined. hPhe(3-Cl-4-CF3) = N[C@@H](CCc1ccc(C(F)(F)F)c(Cl)c1)C(=O)O; NPrPhe(4-CF3) = CCCN[C@@H](Cc1ccc(C(F)(F)F)cc1)C(=O)O; NMeGly(cPent) = CN[C@H](C(=O)O)C1CCCC1; NMeD = CN[C@@H](CC(=O)O)C(=O)O; NMeNva = CCC[C@H](NC)C(=O)O; hPip = O=C(O)[C@@H]1CCCCCN1; Morpholide = C1CN(*)CCO1; Ac5c = NC1(C(=O)O)CCCC1; Aze = O=C(O)[C@@H]1CCN1; Ac4c = NC1(C(=O)O)CCC1; NPrGly = CCCNCC(=O)O; Sar = CNCC(=O)O

For assay [1], the target named is GDP-bound KRAS wild-type protein (Homo sapiens, UniProt P01116). Nature of the assay: Binding to KRAS by surface plasmon resonance (SPR), dissociation constant KD. The procedure, abridged: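 Running buffer contained 10 µM GDP and 10 mM MgCl2 to keep RAS in the GDP state, with 4% DMSO at pH 7.4. Compounds were flowed at 100 µL/min in 75 s steps of rising concentration over captured biotin-Avi RAS at 30°C. Sensorgrams were fitted 1:1 for KD.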
Sequence of GDP-bound KRAS wild-type protein (P01116 1-188 isoform P01116-2): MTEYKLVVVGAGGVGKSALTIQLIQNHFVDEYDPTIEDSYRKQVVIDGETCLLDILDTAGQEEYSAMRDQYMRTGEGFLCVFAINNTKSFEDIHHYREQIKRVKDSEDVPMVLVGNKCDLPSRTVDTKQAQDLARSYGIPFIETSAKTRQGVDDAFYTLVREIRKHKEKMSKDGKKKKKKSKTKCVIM
A general note: SPR reads the build-up and loss of mass on a sensor chip optically.

The target of assay [2] is GDP-bound NRAS wild-type protein (Homo sapiens, UniProt P01111). Nature of the assay: Binding to NRAS by surface plasmon resonance (SPR), KD and KD ratio to KRAS. A digest of the protocol:
(§1)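 Compound binding is evaluated by SPR single-cycle kinetics, with concentrations added intermittently from low to high for 75 s each. Target surfaces carry GDP-loaded biotinylated Avi-RAS at about 100–300 RU, regenerated after each cycle; temperature 30°C. A 1:1 binding model gives KD.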

For a further assay, the target named is HRAS wild-type protein (Homo sapiens, UniProt P01112). Nature of the assay: Binding to HRAS by surface plasmon resonance (SPR), KD and KD ratio to KRAS. The procedure, abridged: as §1
Sequence of HRAS wild-type protein (P01112 whole entry): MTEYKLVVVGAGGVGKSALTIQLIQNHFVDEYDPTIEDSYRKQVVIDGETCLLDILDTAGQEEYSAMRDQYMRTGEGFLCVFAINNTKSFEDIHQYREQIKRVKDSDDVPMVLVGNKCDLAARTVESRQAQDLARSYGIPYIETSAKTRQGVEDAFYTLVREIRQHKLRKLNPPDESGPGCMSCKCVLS
For assay [3], the system named is human lung cancer strain NCI-H441. Format: cell-based. A digest of the protocol:
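Proliferation was scored by […] measured after the reagent was added to cultures kept at 37°C in 5% carbon dioxide.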

The mark [4] stands for this setting: ratio of KD for GDP-bound NRAS wild-type protein to KD for KRAS.
Setting [5] is: ratio of KD for HRAS wild-type protein to KD for KRAS.
Setting [6] is: Single Cycle Kinetics, 1:1 binding model.
Setting [7] is: ratio of the KD value with respect to GDP-bound NRAS wild-type protein to the KD value with respect to KRAS.
Setting [8] is: ratio of the KD value with respect to HRAS wild-type protein to the KD value with respect to KRAS.

Sequence of GDP-bound NRAS wild-type protein (P01111 whole entry): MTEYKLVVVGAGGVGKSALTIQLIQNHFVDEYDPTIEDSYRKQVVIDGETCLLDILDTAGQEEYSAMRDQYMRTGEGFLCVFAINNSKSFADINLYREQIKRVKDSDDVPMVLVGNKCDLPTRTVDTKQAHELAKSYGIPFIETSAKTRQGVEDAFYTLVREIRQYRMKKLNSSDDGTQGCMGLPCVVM

As a reminder, the pKd is the Kd on a negative log10 scale, so that one unit is a factor of ten. High values mean a small Kd, low ones a large Kd. In general, pIC50 refers to the negative decadic logarithm of the IC50, by convention in mol/L. Read a low pIC50 as a large IC50. As to `CCCN1C(=O)CN(C)C(=O)[C@@H]2CCN2C(=O)[C@H]([C@@H](C)CC)NC(=O)[C@@H]2CCCCCN2C(=O)C[C@@H](C(=O)N2CCOCC2)N(C)C(=O)[C@H](C2CCCC2)N(C)C(=O)C2(CCCC2)NC(=O)[C@@H]2CCCN2C(=O)[C@H](CCc2ccc(C(F)(F)F)c(Cl)c2)NC(=O)CN(C)C(=O)[C@@H]1Cc1ccc(C(F)(F)F)cc1` [PP0302] ([hPip]I[Aze][Sar][NPrPhe(4-CF3)][Sar][hPhe(3-Cl-4-CF3)]P[Ac5c][NMeGly(cPent)][NMeD]-Morpholide; lactam N-11), the negative-log Kd (pKd) in assay [1] (1:1 binding model) was 8.80. Moreover, the “NRAS /KRAS” value in assay [2] (setting [4]) is “B (a compound having 3 or more and less than 10 is denoted as B)”. Besides, the “HRAS /KRAS” value on HRAS wild-type protein (setting [5]) was “C (A compound having a KD ratio of 0.1 or more and less than 3 is denoted as C)”. This compound had a negative logarithm of the IC50 (pIC50) in assay [3] of 6.90.

On to `CCO[C@@H]1C[C@H]2C(=O)NC3(CC(C)(C)C3)C(=O)N(C)[C@@H](C(CC)CC)C(=O)N(C)[C@H](C(=O)N(C)C)CC(=O)N(C)[C@@H](CC)C(=O)N[C@@H]([C@@H](C)CC)C(=O)N(C)CC(=O)N(C)[C@H]3C/C=C\CCN(C3=O)[C@@H](Cc3ccc(C(F)(F)F)cc3)C(=O)N(C)CC(=O)N[C@@H](CCc3ccc(Cl)c(Cl)c3)C(=O)N2C1` [PP2179], for which the pKd in assay [1] (setting [6]) is 8.82. In addition, the “NRAS /KRAS” value in assay [2] (setting [7]) is “AA (a compound having 20 or more is denoted as AA)”. The “HRAS /KRAS” value on HRAS wild-type protein (setting [8]) was “A (a compound having 10 or more and less than 20 is denoted as A)”. In assay [3], this compound gave a pIC50 of 7.87.

In assay [1] (1:1 binding model), `CCC[C@H]1C(=O)N[C@@H]([C@@H](C)CC)C(=O)N(C)CC(=O)N(C)[C@H]2C/C=C\CCN(C2=O)[C@@H](Cc2ccc(C)cc2)C(=O)N(C)CC(=O)N[C@@H](CCc2ccc(C(F)(F)F)c(OC)c2)C(=O)N2CC3(CC3)C[C@H]2C(=O)NC2(CC(C)(C)C2)C(=O)N(C)[C@@H]([C@@H](C)CC)C(=O)N(C)[C@H](C(=O)N(C)C)CC(=O)N1C` [PP3011] had a pKd of 9.24. Further, the “NRAS /KRAS” value in assay [2] (setting [4]) was “A (a compound having 10 or more and less than 20 is denoted as A)”. For the same compound, the “HRAS /KRAS” value on HRAS wild-type protein (setting [5]) is “B (a compound having 3 or more and less than 10 is denoted as B)”. Moreover, the pIC50 in assay [3] is 7.51.

In turn, `CC[C@H](C)[C@@H]1NC(=O)[C@H](COC)N(C)C(=O)C[C@@H](C(=O)N(C)CC)N(C)C(=O)[C@H](C2CCCC2)N(C)C(=O)C2(CC(C)(C)C2)NC(=O)[C@@H]2C[C@@H](F)CN2C(=O)[C@H](CCc2cc(F)cc(F)c2)NC(=O)CN(C)C(=O)[C@H](Cc2ccc(C(F)(F)F)cc2)N2CC/C=C\C[C@@H](C2=O)N(C)C(=O)CN(C)C1=O` [PP3138] had a pKd in assay [1] (1:1 binding model) of 8.36. Moreover, in assay [2] (setting [4]), the “NRAS /KRAS” value was “A (a compound having 10 or more and less than 20 is denoted as A)”. The “HRAS /KRAS” value at HRAS wild-type protein (setting [5]) is “A (a compound having 10 or more and less than 20 is denoted as A)”. The pIC50 in assay [3] is 6.30.

Regarding `CCO[C@@H]1C[C@H]2C(=O)NC3(CC(C)(C)C3)C(=O)N(C)[C@@H](C3CCCC3)C(=O)N(C)[C@H](C(=O)N(C)CC)CC(=O)N(C)[C@@H]([C@H](C)OC)C(=O)N[C@@H]([C@@H](C)CC)C(=O)N3CCC[C@H]3C(=O)N(C)[C@H]3C/C=C\CCN(C3=O)[C@@H](Cc3ccc(C)cc3)C(=O)N(C)CC(=O)N[C@@H](CCc3ccc(C(F)(F)F)c(OC)c3)C(=O)N2C1` [PP3161], the negative logarithm of the Kd (pKd) in assay [1] (1:1 binding model) was 8.64. In addition, the “NRAS /KRAS” value in assay [2] (setting [4]) is “A (a compound having 10 or more and less than 20 is denoted as A)”. Moreover, on HRAS wild-type protein (setting [5]), the “HRAS /KRAS” value is “A (a compound having 10 or more and less than 20 is denoted as A)”. The compound further showed a negative-log IC50 (pIC50) in assay [3] of 6.82.

The compound `CCC[C@H]1C(=O)N[C@@H]([C@@H](C)CC)C(=O)N(C)CC(=O)N(CCC)CC(=O)N(CCC)[C@@H](Cc2ccc(C(F)(F)F)cc2)C(=O)N(C)CC(=O)N[C@@H](CCc2ccc(C(F)(F)F)c(Cl)c2)C(=O)N2CCC[C@H]2C(=O)NC2(CCC2)C(=O)N(C)[C@@H](C2CCCC2)C(=O)N(C)[C@H](C(=O)N2CCOCC2)CC(=O)N1C` [PP1949] ([NMeNva]I[Sar][NPrGly][NPrPhe(4-CF3)][Sar][hPhe(3-Cl-4-CF3)]P[Ac4c][NMeGly(cPent)][NMeD]-Morpholide; lactam N-11) showed a pKd in assay [1] (setting [6]) of 9.04. In addition, the “NRAS /KRAS” value in assay [2] (setting [7]) was “C (A compound having a KD ratio of 0.1 or more and less than 3 is denoted as C)”. Further, the “HRAS /KRAS” value on HRAS wild-type protein (setting [8]) is “C (A compound having a KD ratio of 0.1 or more and less than 3 is denoted as C)”. The compound further showed a pIC50 in assay [3] of 8.03.

For `CCO[C@@H]1C[C@H]2C(=O)NC3(CCC3)C(=O)N(C)[C@@H](C3CCCC3)C(=O)N(C)[C@H](C(=O)N3CCOCC3)CC(=O)N(C)[C@@H](CC3CCCCC3)C(=O)N[C@@H]([C@@H](C)CC)C(=O)N(C)CC(=O)N(C)[C@H]3CCCCCN(C3=O)[C@@H](Cc3ccc(C(F)(F)F)cc3)C(=O)N(C)CC(=O)N[C@@H](CCc3cc(F)c(C(F)(F)F)c(F)c3)C(=O)N2C1` [PP0686], in assay [1] (setting [6]), the negative-log Kd (pKd) is 9.00. In assay [2] (setting [7]), the “NRAS /KRAS” value was “B (a compound having 3 or more and less than 10 is denoted as B)”. Also, the “HRAS /KRAS” value on HRAS wild-type protein (setting [8]) was “B (a compound having 3 or more and less than 10 is denoted as B)”. The pIC50 in assay [3] is 7.18.

Compound `CC[C@H](C)[C@@H]1NC(=O)[C@H](CC(C)C)N(C)C(=O)C[C@@H](C(=O)N2CCOCC2)N(C)C(=O)[C@H](C2CCC2)N(C)C(=O)C2(CCCC2)NC(=O)[C@@H]2CCCN2C(=O)[C@H](CCc2cc(F)c(C(F)(F)F)c(F)c2)NC(=O)CN(C)C(=O)[C@H](Cc2ccc(C(F)(F)F)cc2)N2CCCCC[C@@H](C2=O)N(C)C(=O)CN(C)C1=O` [PP0504] showed a pKd in assay [1] (setting [6]) of 7.85. The “NRAS /KRAS” value in assay [2] (setting [7]) was “B (a compound having 3 or more and less than 10 is denoted as B)”. The “HRAS /KRAS” value on HRAS wild-type protein (setting [8]) was “B (a compound having 3 or more and less than 10 is denoted as B)”. Besides, the negative logarithm of the IC50 (pIC50) in assay [3] was 6.63.

As to `CCC[C@H]1C(=O)N[C@@H]([C@@H](C)CC)C(=O)N(C)CC(=O)N(C)[C@H]2C/C=C\CCN(C2=O)[C@@H](Cc2ccc(C)cc2)C(=O)N(C)CC(=O)N[C@@H](CCc2cc(F)c(C(F)(F)F)c(F)c2)C(=O)N2C[C@H](CC)C[C@H]2C(=O)NC2(CCCC2)C(=O)N(C)[C@@H](C2CCCC2)C(=O)N(C)[C@H](C(=O)N(C)C)CC(=O)N1C` [PP2216], in assay [1] (setting [6]), the pKd was 9.64. Further, the “NRAS /KRAS” value in assay [2] (setting [7]) was “A (a compound having 10 or more and less than 20 is denoted as A)”. Further, the “HRAS /KRAS” value at HRAS wild-type protein (setting [8]) was “A (a compound having 10 or more and less than 20 is denoted as A)”. This compound had a negative logarithm of the IC50 (pIC50) in assay [3] of 7.29.

For `CCCCO[C@H]1CCN2C(=O)[C@H](CCc3cc(F)c(C(F)(F)F)c(F)c3)NC(=O)CN(C)C(=O)[C@H](Cc3ccc(C(F)(F)F)cc3)N3CCCCC[C@@H](C3=O)N(C)C(=O)CN(C)C(=O)[C@H]([C@@H](C)CC)NC(=O)[C@H](CC(C)C)N(C)C(=O)C[C@@H](C(=O)N3CCOCC3)N(C)C(=O)[C@H](C3CCCC3)N(C)C(=O)C3(CCC3)NC(=O)[C@H]12` [PP1009], in assay [1] (Single Cycle Kinetics), the pKd is 8.70. In assay [2] (setting [4]), the “NRAS /KRAS” value was “B (a compound having 3 or more and less than 10 is denoted as B)”. Moreover, the “HRAS /KRAS” value at HRAS wild-type protein (setting [5]) is “B (a compound having 3 or more and less than 10 is denoted as B)”. In assay [3], this compound showed a pIC50 of 6.71.
